Source: the supplement of paper PMC10307832

Key:
Assay in all cases: relative viability (nuclei count vs DMSO), 5 days (fraction); higher = more cells survive
NCI-H2023 = tested on: NCI-H2023
Method in brief: (§1)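 Lung cancer cell lines in 1536-well plates were dosed by pin tool the day after seeding, either with one drug alone or with a fixed anchor-drug dose plus five library-drug doses (not always all listed) in √10 steps. After 5 days, cells were fixed and their nuclei stained in one step (final 0.05% Triton X-100, 1% formaldehyde, 1 ug/ml Hoechst), then counted on 4× images. Relative viability is the nuclei count in treated wells divided by that in vehicle wells. Values are medians of duplicate plates.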

ABC-1 = tested on: ABC-1
Method in brief: as §1

NCI-H596 = tested on: NCI-H596
Method in brief: as §1

NCI-H650 = tested on: NCI-H650
Method in brief: as §1

NCI-H1944 = tested on: NCI-H1944
Method in brief: as §1

NCI-H661 = tested on: NCI-H661
Method in brief: as §1

CAL-12T = tested on: CAL-12T
Method in brief: as §1

NCI-H2087 = tested on: NCI-H2087
Method in brief: as §1

NCI-H520 = tested on: NCI-H520
Method in brief: as §1

NCI-H1651 = tested on: NCI-H1651
Method in brief: as §1

A-427 = tested on: A-427
Method in brief: as §1

LCLC-97TM1 = tested on: LCLC-97TM1
Method in brief: as §1

Work on `COc1cc(N2CCC(C(N)=O)CC2)ccc1Nc1nc(N)c(Cl)c(Nc2ccccc2S(=O)(=O)C(C)C)n1` [HG-5-88-01] + CS(=O)(=O)N1CCN(Cc2cc3nc(-c4cccc5[nH]ncc45)nc(N4CCOCC4)c3s2)CC1 [Pictilisib] (partner 1 µM) yielded a relative viability (NCI-H2023; first compound 0.04 µM) of 0.222, a relative viability (NCI-H2023; first compound 0.1265 µM) of 0.245 and a relative viability (NCI-H2023; first compound 0.4 µM) of 0.16. It also gave a relative viability (NCI-H2023; first compound 1.265 µM) of 0.159, a relative viability (NCI-H2023; first compound 4 µM) of 0.171 and a relative viability (ABC-1; first compound 0.04 µM) of 0.614. It also gave a relative viability (ABC-1; first compound 0.1265 µM) of 0.829, a relative viability (ABC-1; first compound 0.4 µM) of 0.679 and a relative viability (ABC-1; first compound 1.265 µM) of 0.681. The relative viability (ABC-1; first compound 4 µM) was 0.522, the relative viability (NCI-H596; first compound 0.04 µM) was 0.447 and the relative viability (NCI-H596; first compound 0.1265 µM) was 0.42. For the same compound, the relative viability (NCI-H596; first compound 0.4 µM) was 0.382, the relative viability (NCI-H596; first compound 1.265 µM) was 0.414 and the relative viability (NCI-H596; first compound 4 µM) was 0.312. The relative viability (NCI-H650; first compound 0.04 µM) was 0.88, the relative viability (NCI-H650; first compound 0.1265 µM) was 0.925 and the relative viability (NCI-H650; first compound 0.4 µM) was 0.864. For the same compound, the relative viability (NCI-H650; first compound 1.265 µM) was 0.743, the relative viability (NCI-H650; first compound 4 µM) was 0.685 and the relative viability (NCI-H1944; first compound 0.04 µM) was 0.319. For the same compound, the relative viability (NCI-H1944; first compound 0.1265 µM) was 0.341, the relative viability (NCI-H1944; first compound 0.4 µM) was 0.336 and the relative viability (NCI-H1944; first compound 1.265 µM) was 0.334. For the same compound, the relative viability (NCI-H1944; first compound 4 µM) was 0.352, the relative viability (NCI-H661; first compound 0.04 µM) was 0.43 and the relative viability (NCI-H661; first compound 0.1265 µM) was 0.477. For the same compound, the relative viability (NCI-H661; first compound 0.4 µM) was 0.469, the relative viability (NCI-H661; first compound 4 µM) was 0.418 and the relative viability (CAL-12T; first compound 0.04 µM) was 0.321. It also gave a relative viability (CAL-12T; first compound 0.1265 µM) of 0.354, a relative viability (CAL-12T; first compound 0.4 µM) of 0.418 and a relative viability (CAL-12T; first compound 1.265 µM) of 0.296. It also gave a relative viability (CAL-12T; first compound 4 µM) of 0.227, a relative viability (NCI-H2087; first compound 0.04 µM) of 0.835 and a relative viability (NCI-H2087; first compound 0.1265 µM) of 1.08. For the same compound, the relative viability (NCI-H2087; first compound 0.4 µM) was 0.928, the relative viability (NCI-H2087; first compound 1.265 µM) was 0.771 and the relative viability (NCI-H2087; first compound 4 µM) was 0.9. It also gave a relative viability (NCI-H520; first compound 0.04 µM) of 0.366, a relative viability (NCI-H520; first compound 0.1265 µM) of 0.273 and a relative viability (NCI-H520; first compound 0.4 µM) of 0.235. It also gave a relative viability (NCI-H520; first compound 1.265 µM) of 0.299, a relative viability (NCI-H520; first compound 4 µM) of 0.36 and a relative viability (NCI-H1651; first compound 0.04 µM) of 0.51. The relative viability (NCI-H1651; first compound 0.1265 µM) was 0.609, the relative viability (NCI-H1651; first compound 0.4 µM) was 0.559 and the relative viability (NCI-H1651; first compound 1.265 µM) was 0.646. For the same compound, the relative viability (NCI-H1651; first compound 4 µM) was 0.646, the relative viability (A-427; first compound 0.04 µM) was 0.716 and the relative viability (A-427; first compound 0.1265 µM) was 0.812. For the same compound, the relative viability (A-427; first compound 0.4 µM) was 0.706, the relative viability (A-427; first compound 1.265 µM) was 0.914 and the relative viability (A-427; first compound 4 µM) was 0.442. For the same compound, the relative viability (LCLC-97TM1; first compound 0.04 µM) was 0.156, the relative viability (LCLC-97TM1; first compound 0.1265 µM) was 0.185 and the relative viability (LCLC-97TM1; first compound 0.4 µM) was 0.146. The relative viability (LCLC-97TM1; first compound 1.265 µM) was 0.213 and the relative viability (LCLC-97TM1; first compound 4 µM) was 0.135.
